In patent US4963541A, “Pyrimido-pyrimidine lipoxygenase inhibiting compounds” (Abbott Laboratories, priority 1989, dated 1990):

Assays:
[1] = Drugs of the Future, 8, 1023, 1983; cited from earlier work
[2] = tested on: tumor cell growth; settings: in rats; Ger. Offen. 2931, 573; cited from earlier work
[3] = target: T1, 5-lipoxygenase (Rattus norvegicus, UniProt P12527); assay: Inhibition of 5-lipoxygenase activity (20,000x g supernatant from homogenized RBL-1 cells); type: biochemical; settings: In vitro, 20,000x g supernatant from homogenized RBL-1 cells
T1 construct: 20,000x g supernatant from homogenized RBL-1 cells; endogenous in cells; host or cells: RBL-1 cells (20,000x g supernatant of homogenate)
T1 sequence (P12527 1-673): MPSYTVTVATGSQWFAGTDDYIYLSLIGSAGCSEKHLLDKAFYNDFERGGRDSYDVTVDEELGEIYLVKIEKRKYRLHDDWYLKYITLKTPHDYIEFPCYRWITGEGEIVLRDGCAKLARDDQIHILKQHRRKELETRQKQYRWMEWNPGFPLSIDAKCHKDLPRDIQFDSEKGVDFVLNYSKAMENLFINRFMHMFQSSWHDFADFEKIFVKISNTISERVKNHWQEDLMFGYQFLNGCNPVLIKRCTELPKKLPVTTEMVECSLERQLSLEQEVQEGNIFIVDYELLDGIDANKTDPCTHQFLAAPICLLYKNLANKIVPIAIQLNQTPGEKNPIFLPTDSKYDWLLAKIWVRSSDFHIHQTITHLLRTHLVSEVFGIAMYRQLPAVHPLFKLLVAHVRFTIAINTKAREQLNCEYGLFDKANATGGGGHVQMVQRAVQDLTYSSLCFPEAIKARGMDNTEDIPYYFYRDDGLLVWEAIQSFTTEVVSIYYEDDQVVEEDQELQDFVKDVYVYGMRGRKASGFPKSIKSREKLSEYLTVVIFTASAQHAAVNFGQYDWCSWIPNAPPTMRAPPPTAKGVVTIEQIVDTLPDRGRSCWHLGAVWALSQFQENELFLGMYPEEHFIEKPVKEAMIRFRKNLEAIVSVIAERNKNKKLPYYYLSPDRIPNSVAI
Description: Inhibition of 5-lipoxygenase activity was determined using the 20,000x g supernatant from homogenized RBL-1 cells in a similar manner as that described by Dyer and coworkers (Dyer, R.D.; Haviv, F,; Hanel, A. M.; Bornemier, D. A.; Carter, G. W. Fed. Proc., Fed. Am. Soc. Exp. Biol. 1984, 43, 1462A). IC50 values (concentration of compound producing 50% enzyme inhibition) were calculated by linear regression analysis of percentage inhibition versus log inhibitor concentration plots.

[4] = tested on: 5-lipoxygenase; settings: Young, Dyer, Carter, Federation Proceedings 44(4):904, 1985; cited from earlier work

| IC50 [3] [nM] | Structure (SMILES) | further results |
| --- | --- | --- |
| 300 | CN(CCO)c1nc(N2CCCCCC2)c2nc(N(C)CCO)nc(N3CCCCCC3)c2n1 [Example 3, 2,6-bis-2-(Methylamino)ethanol-4,8-bis-N-perhydroazepinepyrimido-[5,4-d]pyrimidine] |  |
| 920 | CN(CCO)c1nc(N2CCCCCCC2)c2nc(N(C)CCO)nc(N3CCCCCCC3)c2n1 [Example 4, 2,6-bis-2-(Methylamino)ethanol-4,8-bis-N-perhydroazocinepyrimido[5,4-d]pyrimidine] |  |

More lines, now with the values behind:

| Structure (SMILES) | IC50 [3] [nM] | further results |
| --- | --- | --- |
| CCN(CC)c1nc(N(CCO)CCOC)nc2c(N(CC)CC)nc(N(CCO)CCOC)nc12 [2,6-bis-(2-hydroxyethyl-2-methoxyethylamino)-4,8-bis-(diethylamino)pyrimido[5,4-d]pyrimidine] |  | reported to be a hypertensive agent [1]: hypertensive agent |
| OCCN(CCO)c1nc(N2CCCCC2)c2nc(N(CCO)CCO)ncc2n1 [2,6-bis-(diethanolamino)-4-piperidinopyrimido[5,4d]pyridimine] |  | inhibit tumor cell growth [2]: shown to inhibit tumor cell growth in rats |
| CN(CCO)c1nc(N2CCCCC2)c2nc(N(C)CCO)nc(N3CCCCC3)c2n1 [Example 1, 2,6-bis-2-(Methylamino)ethanol-4,8-bis-N-piperidinopyrimido[5,4-d]pyrimidine] | 340 |  |
| OCCNc1nc(N2CCCCC2)c2nc(NCCO)nc(N3CCCCC3)c2n1 [Example 2, 2,6-bis-Aminoethanol-4,8-bis-N-piperidinopyrimido[5,4-d]pyrimidine] | 2900 |  |
| OCCN(CCO)c1nc(N2CCCCC2)c2nc(N(CCO)CCO)nc(N3CCCCC3)c2n1 [dipyridamole, 2,6-bis-(diethanolamino)-4,8-dipiperidinopyrimido[5,4-d]pyrimidine] |  | reported to be an inhibitor of 5-lipoxygenase [4]: inhibitor of 5-lipoxygenase |
